Measured values from patent US20120021014A1, “CORROSION CURRENT-GENERATING METAL PARTICULATES AND USE THEREOF” (priority 2010, published 2012).

Tests used:
human keratinocyte cells = test: Hydrogen peroxide production in human keratinocytes (CM-H2DCFDA fluorescence); type: cell-based; details: 0.03% positive control; 60 Minutes
Procedure: The cells were treated with different amounts of the magnesium powder.

Albino male CD-1 mice = test: Oxazolone immune cell-mediated skin inflammation model (ear biopsy weight); type: in vivo; details: 1 mg/ml positive control, topical to ear; 24 hours
[1] = test system: male albino Wistar rats (SPRAGUE DAWLEY); test: CFA-induced ankle arthritis, incapacitance test (weight bearing); type: in vivo; details: positive control, 3 mg/kg once daily prior to the functional measurements
[2] = test system: male albino Wistar rats (SPRAGUE DAWLEY); test: CFA-induced ankle arthritis, joint swelling (paw volume difference); type: in vivo; details: positive control, 3 mg/kg once daily; CFA-induced paw vs control paw

OO [H2O2, hydrogen peroxide]
Hydrogen peroxide production (fluorescence 485 nm excitation/530 nm emission) (human keratinocyte cells): 150.11 ± 2.9

C[C@]12CCC(=O)C=C1CC[C@@H]1[C@@H]2[C@@H](O)C[C@@]2(C)[C@H]1CC[C@]2(O)C(=O)CO [Hydrocortisone, hydrocortisone]
Percent Inhibition of Skin Inflammation (Albino male CD-1 mice): 70.3% ± 6.6%

CN1CC[C@]23c4c5ccc(O)c4O[C@H]2[C@@H](O)C=C[C@H]3[C@H]1C5.O=S(=O)(O)O [Morphine, morphine sulphate]
Deficiency Improvement, MEAN IMPROVEMENT (weight bearing percent minus Day 4 baseline, averaged over all time points) [1]: 16.85
MEAN PAW VOLUME DIFFERENCE [2]: 1.38 mL
